This is an account of results in patent publication US8293240B2, “Method of treating drug-resistant cancer” (The Regents of the University of Colorado, priority 2004, dated 2012).

SMILES strings stand for the structures.

The subject of data set [1] is HL60 MDR human leukemia cells. Kind of data set: percent death of HL60 MDR cells (flow cytometry, live versus dead). It is filed as cell-based. In general terms: Flow cytometry measures light scatter and fluorescence of single cells or particles in a stream.
Procedure: Dot plots as a function of live versus dead cells. The cells were cultured at a concentration of 0.5 to 1 million cells per ml. Cells were untreated or treated with or 2-deoxy-D-glucose and/or etomoxir and/or antibodies to UCP2 and used at dilutions or concentrations as indicated on the figure. The cells were cultured in the presence or absence of etomoxir at 100 micrograms/ml for 24 hours followed by treatment with antibody as indicated for an additional 24 or 48 hours (i.e. totals of 48 hours or 72 hours respectively). Cells were harvested and analyzed by flow cytometry. Each dot on the dot plot represents one cell. Five thousand cells were assessed for forward scatter (FS), as a function of cell size, versus side scatter (SS), as a function of cellular granularity. The upper elipse represents live cells by these criterion and the lower elipse in each dot plot represents the dead cells.
HL60 MDR human leukemia cells were cultured as described above under “Materials and Methods”. Cells were untreated or treated with etomoxir, with 2-deoxy-D-glucose, or with a combination of etomoxir and 2-deoxy-D-glucose, at concentrations indicated in FIG. 27 for 24 hours. Cells were harvested and analyzed by flow cytometry.
Referring to FIGS. 31 and 32, HL60 MDR cells, cultured as described in Example 21, were untreated or treated with etomoxir, with 2-deoxy-D-glucose, or with a combination of etomoxir and 2-deoxy-D-glucose, at concentrations indicated in FIG. 31 for 48 hours. Cells were harvested and analyzed by flow cytometry.
Referring to FIGS. 35 and 36, HL60 MDR cells, cultured as described in Example 21, were treated with anti-UCP2 antibody and otherwise untreated or treated simultaneously with etomoxir, 2-deoxy-D-glucose, or both, at concentrations indicated in FIG. 35 for 48 hours. Cells were harvested and analyzed by flow cytometry.
Data set [2] relates to RD cells (rhabdomyosarcoma cells-not drug resistant). Kind of data set: percent death of RD cells (flow cytometry, live versus dead). Format: cell-based.
Procedure: The cells were cultured at a concentration of 0.5 to 1 million cells per ml. Cells were untreated or treated with or 2-deoxy-D-glucose and/or etomoxir and/or antibodies to UCP2 and used at dilutions or concentrations as indicated on the figure. The cells were cultured in the presence or absence of etomoxir at 100 micrograms/ml for 24 hours followed by treatment with antibody as indicated for an additional 24 or 48 hours (i.e. totals of 48 hours or 72 hours respectively). Cells were harvested and analyzed by flow cytometry. Each dot on the dot plot represents one cell. Five thousand cells were assessed for forward scatter (FS), as a function of cell size, versus side scatter (SS), as a function of cellular granularity. The upper elipse represents live cells by these criterion and the lower elipse in each dot plot represents the dead cells.
Referring to FIGS. 29 and 30, RD cells (rhabdomyosarcoma cells-not drug resistant), cultured as described above under “Materials and Methods” were untreated or treated with etomoxir, with 2-deoxy-D-glucose, or with a combination of etomoxir and 2-deoxy-D-glucose, at concentrations indicated in FIG. 29 for 24 hours. Cells were harvested and analyzed by flow cytometry.
Referring to FIGS. 33 and 34, RD cells, cultured as described in Example 22, were untreated or treated with etomoxir, with 2-deoxy-D-glucose, or with a combination of etomoxir and 2-deoxy-D-glucose, at concentrations indicated in FIG. 33 for 48 hours. Cells were harvested and analyzed by flow cytometry.
Referring to FIGS. 37 and 38, RD cells, cultured as described in Example 22, were treated with anti-UCP2 antibody and otherwise untreated or treated simultaneously with etomoxir, 2-deoxy-D-glucose, or both, at concentrations indicated in FIG. 37 for 48 hours. Cells were harvested and analyzed by flow cytometry.
In data set [3] the test system is HL60 MDR tumor. Kind of data set: tumor volume of HL60 MDR tumor implanted in nude mice. It is filed as in vivo. To be noted: for tumor volume: 200 ug Etomoxir, 2.5 mM 2-Deoxy-D-glucose. The text has this: Tumor implantation. Mice were purchased from the Animal Production Program of National Cancer Institute, Frederick, Md. The animals used were Athymic Ncr-nu/nu (strain code 01B74). HL60 MDR cells were harvested and reconstituted at 1 million cells per 100 microliters of phosphate buffered saline. One million tumor cells per injection site were implanted subcutaneously on two sites of the animal's back. Treatments began at exactly seven days post tumor implantation. Tumor size/volume was monitored twice weekly using measurement calipers, with the formula Tumor Volume=π×(short diameter)^2×(long diameter)/6.
Mice experiments with fatty acid metabolism and glucose metabolism inhibitors. Fatty acid metabolism inhibitors were exemplified by etomoxir at 200 micrograms/day. Glucose metabolism inhibitors were exemplified by 2-deoxy-D-glucose at 2.5 mM in 100 microliters daily. The combination was administered daily, etomoxir at 200 micrograms and 2-deoxy-D-glucose at 2.5 mM in 100 microliters. All drugs were administered intra-peritoneally. Fluorouracil, at 20 mg per kilogram mouse, was injected intra-peritoneally once a week
HL60 MDR human leukemia cells were cultured and implanted in nude mice as described above under “Materials and Methods”. The mice were given 200 ug of Etomoxir, 2.5 mM 2-Deoxy-D-glucose, or both 200 ug of Etomoxir and 2.5 mM 2-Deoxy-D-glucose given daily by IP injection. Treatment began exactly one week after tumor implantation.
Mice were purchased from National Cancer Institute, Animal Production Program (Frederick, Md.). The animals used were Athymic Ncr-nu/nu (Strain code 01B74). HL60 MDR cells were harvested and reconstituted at 1 million cells per 100 microliters of phosphate buffered saline. One million tumor cells/per injection site were implanted subcutaneously on two sites of the animal's back. Treatments began at exactly seven days post tumor implantation. Tumor size/volume was monitored twice weekly using measurement calipers with the formula for Tumor Volume=π(short diameter)^2(long diameter)/(divided by )6. […]

For data set [4] the following is noted: 5-FU that is taken up by the cell; cited from earlier work.
Data set [5] concerns B16F1. Kind of data set: % death of B16F1 cells treated or not with cerulenin (flow cytometry). It is filed as cell-based, mouse. To be noted: B16F1, 25 ug/mL Cerulenin. The method, then: (§1) Statistical Analysis, Percents, and Geometric Mean Values Percents. Gating is a tool provided by Cell Quest software and allows for the analysis of a certain population of cells. Gating around both the live and dead cell populations gave a percent of the cell numbers that was in each population. After the gates were drawn, a percent value of dead cells was calculated by taking the number of dead cells divided by the number of total cells and multiplying by one hundred.
(§2) This example illustrates an embodiment of the invention, where multi-drug resistant cancer cells were exposed to compositions of the invention. Analysis of the cells was performed using flow cytometry. The flow cytometry experiments were performed as follows. The cells were harvested, counted, and resuspended as described above. For DNA staining, the cells were washed and resuspended in ice-cold PBS and fixed by the dropwise addition of 95% ethanol. The cells were then incubated for 30 minutes on ice, washed, and resuspended in PBS containing 1% formaldehyde and 0.01% Tween. The cells were incubated with 50 units of DNAse and washed with PBS containing 5% DNAse. The cells were then incubated with anti DNA Fab (166, kind gift of Dr. Susan Wallace, University of Vermont), then washed and stained with a fluorescein conjugated second step anti-mouse immunoglobulin. The cells were then washed and resuspended in PBS/3% BSA/1% formaldehyde. The cells were stained for intracellular H2O2 using 6-carboxy-2′,7′-dichlorodihydrofluorescein diacetate (DCF-DA, Molecular Probes, Eugene, Oreg.). The cells were incubated with 1 mM DCF-DA for 20 minutes, washed twice in PBS containing 5% fetal calf serum and analyzed using flow cytometry. The mitochondrial membrane potential was assessed using MitoTracker Red (CM-H2XROS, Molecular Probes, Eugene, Oreg.). The cells were resuspended in warm (37° C.) PBS containing a final concentration of 0.5 micromolar of dye. The cells were then incubated for 30 minutes, pelleted, and resuspended in prewarmed medium for analysis. The data was acquired on a Coulter Elite Epics or Excel flow cytometer (Coulter, Hialeah, Fla.) and analyzed with CellQuest software, (Becton Dickinson, San Jose, Calif.). […] Each sample population was classified for cell size (forward scatter) and complexity (side scatter), gated on a population of interest and evaluated using 40,000 cells. Each figure describing flow cytometric data represents one of at least four replicate experiments. […]
(§3) The flow cytometry experiments were performed as follows. Once the samples were prepared and transferred into flow cytometric tubes, the samples were analyzed on a Becton/Dickinson Flow Cytometer. […] Statistical analysis, percents, and geometric mean values percents were calculated as described above.

For data set [6], the system named is HL60. Kind of data set: % death / microscopy of HL60 cells treated or not with cerulenin. It is filed as cell-based, human. The settings on record: for % Death: HL60, 25 ug/mL Cerulenin. The method, then:
as §1
(§4) This example illustrates an embodiment of the invention, where multi-drug resistant cancer cells were exposed to compositions of the invention. Analysis of the cells was performed using flow cytometry. The flow cytometry experiments were performed as follows. The cells were harvested, counted, and resuspended as described above. For DNA staining, the cells were washed and resuspended in ice-cold PBS and fixed by the dropwise addition of 95% ethanol. The cells were then incubated for 30 minutes on ice, washed, and resuspended in PBS containing 1% formaldehyde and 0.01% Tween. The cells were incubated with 50 units of DNAse and washed with PBS containing 5% DNAse. […] The cells were incubated with 1 mM DCF-DA for 20 minutes, washed twice in PBS containing 5% fetal calf serum and analyzed using flow cytometry. The mitochondrial membrane potential was assessed using MitoTracker Red (CM-H2XROS, Molecular Probes, Eugene, Oreg.). […] The data was acquired on a Coulter Elite Epics or Excel flow cytometer (Coulter, Hialeah, Fla.) and analyzed with CellQuest software, (Becton Dickinson, San Jose, Calif.). […] Each sample population was classified for cell size (forward scatter) and complexity (side scatter), gated on a population of interest and evaluated using 40,000 cells. […]
(§5) The flow cytometry experiments were performed as follows. Once the samples were prepared and transferred into flow cytometric tubes, the samples were analyzed on a Becton/Dickinson Flow Cytometer. […] Statistical analysis, percents, and geometric mean values percents were calculated as described above. […]

Data set [7] deals with HL60 MDR. Kind of data set: % death / microscopy of HL60 MDR cells treated or not with cerulenin. It is filed as cell-based, human. To be noted: for % Death: 25 ug/mL Cerulenin. As for the experimental part:
as §1, §2, §5

In data set [8] the test system is L1210. Briefly: % death of L1210 cells treated or not with cerulenin (flow cytometry). The settings on record: L1210, 25 ug/mL Cerulenin. Format: cell-based. As for the experimental part:
as §1
as §4, with “above.” for “above. For DNA staining, the cells were washed and resuspended in ice-cold PBS and fixed by the dropwise addition of 95% ethanol. The cells were then incubated for 30 minutes on ice, washed, and resuspended in PBS containing 1% formaldehyde and 0.01% Tween. The cells were incubated with 50 units of DNAse and washed with PBS containing 5% DNAse.”

Data set [9] concerns L1210 DDP. Briefly: % death of L1210 DDP cells treated or not with cerulenin (flow cytometry). Format: cell-based. The settings on record: for % Death: 25 ug/mL Cerulenin. As for the experimental part: as §1, §4, §3
Data set [10] deals with B16F1 melanoma cells. Kind of data set: mice injected with B16F1 melanoma cells exposed or not to cerulenin. It is filed as in vivo. To be noted: for tumor observation and activity of mouse: B16F1 10^6 cells treated w/25 ug/ml cerulenin 5.0 hrs before injection. The text has this:
Highly carcinogenic B16F1 melanoma cells were either exposed (“treated”) or not exposed to cerulenin, then injected into male mice.

Consider `OC[C@H]1O[C@H](O)CC(O)[C@@H]1O` (stereo partly drawn) [2-deoxy-D-glucose], for which the “percent of cell deaths” value in data set [1] (HL60 MDR cells after 24 hours) was found to be 16%; in data set [1] (HL60 MDR cells after 48 hours) it was 38%; in [2] (RD cells after 24 hours) it was 46%; in [2] (RD cells after 48 hours) it was 63%. For the same compound, the tumor volume in [3] (Day 7, daily IP from one week after implantation) is recorded as 35 mm^3; in data set [3] (Day 9, daily IP), 51.56 mm^3; in [3] (Day 15, daily IP), 158.55 mm^3; in [3] (Day 21, daily IP) it was 1,181.61 mm^3. Also, the “effect on tumor growth” value in data set [3] (HL60 MDR in nude mice, 21 day period, single agent) was “increase in tumor growth”.

Take `O=c1[nH]cc(F)c(=O)[nH]1` [5-FU, 5-Fluorouracil]: in data set [4], the half-life in vivo result is “about 18 minutes”.

As to `C/C=C/C/C=C/CCC(=O)[C@H]1O[C@H]1C(N)=O` [cerulenin], the “% Death” value in data set [5] (4 Hours (Table 1)) is 0%; in [5] (5.0 Hours (Table 2)), 67%; in [5] (24 hours (Table 2)), 72%; in data set [5] (.0 Hours (Table 1)), 1%; in [6] (4 Hours (Table 1)) it was 4%; in data set [6] (.0 Hours (Table 1)), 1%. In addition, the “% Death” value is on record as 9.6% in data set [7] (HL60 MDR, 4 Hours (Table 1)); 3% in [7] (HL60 MDR, .0 Hours (Table 1)); 27% in [8] (7.0 Hours); 89% in [8] (24 Hours); 14% in data set [9] (7.0 Hours); 92% in [9] (24 Hours). Further, the “cell survival in microscopy images” value in data set [6] (HL60 cells treated with cerulenin, FIG. 4C) is given as “large numbers of the cells survived”. In addition, in [7] (HL60 MDR cells treated with cerulenin, FIGS. 4E and 4F), the “cell death in microscopy images” value is given as “large numbers of cell death”. The “cell death compared to control and non-multidrug resistant cancer cells” value is given as “greater amounts of cell death” in data set [7] (HL60 MDR, after treatment with cerulenin) and “greater amounts of cell death” in data set [9] (after treatment with cerulenin). The entries for the “tumor observation and activity of mouse” value in data set [10] (Day 9), in [10] (Day 12) and in data set [10] (Day 13) were “Day 9 no visible sign of tumors - very active”, “Day 12 no visible tumors - very active (FIG. 5D)” and “Day 13 no visible tumors - very active”, respectively. Also, the “development of lethal cancers” value in data set [10] (mice exposed to melanoma cells treated with cerulenin, during the experiment) is on record as “did not develop lethal cancers”.
